System: HCV 1b_Huh-Luc/Neo-ET cell line (bicistronic genotype 1b replicon in Huh 7 cells)
Assay: HCV replicon assay (luciferase readout)
Format: cell-based, HCV genotype 1b
Conditions: Hepatitis C virus, Huh-7, 72 h, read-out: Inhibition of HCB genotype 1b
Procedure: Biological activity of the compounds of the invention was determined using an HCV replicon assay. The HCV 1b_Huh-Luc/Neo-ET cell line persistently expressing a bicistronic genotype 1b replicon in Huh 7 cells was obtained from ReBLikon GMBH. This cell line was used to test compound inhibition using luciferase enzyme activity readout as a measurement of compound inhibition of replicon levels.
On Day 1 (the day after plating cells), each compound is added in triplicate to the cells. Plates are incubated for 72 h prior to determining luciferase levels. Enzyme activity was measured using a Bright-Glo Kit (cat. number E2620) manufactured by Promega Corporation. The following equation was used to generate a percent control value for each compound. % Control=(Compound Luciferase Level/Control Luciferase Level)*100
The EC50 value was determined using GraphPad Prism and the following equation: Y=Bottom asymptote+(Top asymptote−Bottom asymptote)/(1+10^((LogEC50−X)*HillSlope))
EC50 values of compounds are determined several times in the replicon assay to generate average EC50 values.

Row | SMILES | EC50
1 | COCCOc1c(-c2ccc(-c3cnc([C@@H]4CCCN4C(=O)[C@H](C)NC(=O)OC)[nH]3)cc2)ccc(-c2cnc([C@@H]3CCCN3C(=O)[C@H](C)NC(=O)OC)[nH]2)c1OCCOC [Compound 10] | < 1 nM
2 | CC[C@H](C)[C@H](NC(=O)OC)C(=O)N1CCC[C@H]1c1ncc(-c2ccc(-c3ccc(-c4cnc([C@@H]5CCCN5C(=O)[C@@H](NC(=O)OC)[C@@H](C)CC)[nH]4)c(OCCOC)c3OCCOC)cc2)[nH]1 [Compound 3] | < 1 nM
3 | CC[C@H](C)[C@H](NC(=O)OC)C(=O)N1CCC[C@H]1c1ncc(-c2ccc(-c3ccc(-c4cnc([C@@H]5CCCN5C(=O)[C@@H](NC(=O)OC)C(C)C)[nH]4)cc3)c(OCCOC)c2OCCOC)[nH]1 [Compound 19] | < 1 nM
4 | COCCOc1cc(-c2cnc([C@@H]3CCCN3C(=O)[C@H](C)NC(=O)OC)[nH]2)ccc1-c1ccc(-c2cnc([C@@H]3CCCN3C(=O)[C@H](C)NC(=O)OC)[nH]2)cc1OCCOC [Compound 6] | 10 to 999 nM
5 | COCCOc1cc(-c2cnc([C@@H]3CCCN3C(=O)[C@@H](NC(=O)OC)C(C)C)[nH]2)ccc1-c1ccc(-c2cnc([C@@H]3CCCN3C(=O)[C@@H](NC(=O)OC)C(C)C)[nH]2)cc1OCCOC [Compound 1] | < 1 nM
6 | COCCOc1c(-c2ccc(-c3cnc([C@@H]4CCCN4C(=O)[C@@H](NC(=O)OC)C(C)C)[nH]3)cc2)ccc(-c2cnc([C@@H]3CCCN3C(=O)[C@@H](NC(=O)OC)C(C)C)[nH]2)c1OCCOC [Compound 2] | < 1 nM
7 | COCCOc1c(-c2ccc(-c3cnc([C@@H]4CCCN4C(=O)[C@@H](NC(=O)OC)C(C)C)[nH]3)cc2)ccc(-c2cnc([C@@H]3CCCN3C(=O)[C@H](C)NC(=O)OC)[nH]2)c1OCCOC [Compound 18] | 1 to 9.9 nM
8 | COCCOc1c(-c2ccc(-c3cnc([C@@H]4CCCN4C(=O)[C@H](NS(C)(=O)=O)c4ccccc4)[nH]3)cc2)ccc(-c2cnc([C@@H]3CCCN3C(=O)[C@H](NS(C)(=O)=O)c3ccccc3)[nH]2)c1OCCOC [Compound 17] | < 1 nM
9 | CC[C@H](C)[C@H](NC(=O)OC)C(=O)N1CCC[C@H]1c1ncc(-c2ccc(-c3ccc(-c4cnc([C@@H]5CCCN5C(=O)[C@@H](NC(=O)OC)[C@@H](C)CC)[nH]4)cc3OCCOC)c(OCCOC)c2)[nH]1 [Compound 7] | < 1 nM
10 | COCCOc1c(-c2ccc(-c3cnc([C@@H]4CCCN4C(=O)[C@@H](NC(=O)OC)C4CCOCC4)[nH]3)cc2)ccc(-c2cnc([C@@H]3CCCN3C(=O)[C@@H](NC(=O)OC)C3CCOCC3)[nH]2)c1OCCOC [Compound 14] | 1 to 9.9 nM
11 | COCCOc1c(-c2ccc(-c3cnc([C@@H]4CCCN4C(=O)[C@@H](NC(=O)OC)[C@@H](C)OC)[nH]3)cc2)ccc(-c2cnc([C@@H]3CCCN3C(=O)[C@@H](NC(=O)OC)[C@@H](C)OC)[nH]2)c1OCCOC [Compound 12] | 1 to 9.9 nM
12 | COCCOc1c(-c2ccc(-c3cnc([C@@H]4CCCN4C(=O)[C@@H](NC(=O)OC)C4CCCC4)[nH]3)cc2)ccc(-c2cnc([C@@H]3CCCN3C(=O)[C@@H](NC(=O)OC)C3CCCC3)[nH]2)c1OCCOC [Compound 4] | < 1 nM
13 | COCCOc1c(-c2ccc(-c3cnc([C@@H]4CCCN4C(=O)[C@@H](NC(=O)OC)C(C)(C)C)[nH]3)cc2)ccc(-c2cnc([C@@H]3CCCN3C(=O)[C@@H](NC(=O)OC)C(C)(C)C)[nH]2)c1OCCOC [Compound 13] | 1 to 9.9 nM
14 | COCCOc1cc(-c2cnc([C@@H]3CCCN3C(=O)[C@@H](NC(=O)OC)C3CCCC3)[nH]2)ccc1-c1ccc(-c2cnc([C@@H]3CCCN3C(=O)[C@@H](NC(=O)OC)C3CCCC3)[nH]2)cc1OCCOC [Compound 8] | < 1 nM
15 | COCCOc1c(-c2ccc(-c3cnc([C@@H]4CCCN4C(=O)[C@@H](c4ccccc4)N(C)C)[nH]3)cc2)ccc(-c2cnc([C@@H]3CCCN3C(=O)[C@@H](c3ccccc3)N(C)C)[nH]2)c1OCCOC [Compound 15] | < 1 nM
16 | COCCOc1c(-c2ccc(-c3cnc([C@@H]4CCCN4C(=O)[C@H](COC)NC(=O)OC)[nH]3)cc2)ccc(-c2cnc([C@@H]3CCCN3C(=O)[C@H](COC)NC(=O)OC)[nH]2)c1OCCOC [Compound 11] | 10 to 999 nM
17 | COCCOc1cc(-c2cnc([C@@H]3CCCN3C(=O)[C@@H](NC(=O)OC)C3CCCCC3)[nH]2)ccc1-c1ccc(-c2cnc([C@@H]3CCCN3C(=O)[C@@H](NC(=O)OC)C3CCCCC3)[nH]2)cc1OCCOC [Compound 9] | < 1 nM
18 | COCCOc1c(-c2ccc(-c3cnc([C@@H]4CCCN4C(=O)[C@@H](c4ccccc4)N4CCCC4)[nH]3)cc2)ccc(-c2cnc([C@@H]3CCCN3C(=O)[C@@H](c3ccccc3)N3CCCC3)[nH]2)c1OCCOC [Compound 16] | 1 to 9.9 nM
